The values that follow come from ChEMBL document CHEMBL1201862, “PubChem BioAssay data set” (2004).

In data set [1] the target is Cytochrome P450 2C9 (Homo sapiens, UniProt P11712).
The target of data set [2] is DNA dC->dU-editing enzyme APOBEC-3A (Homo sapiens, UniProt P31941). Kind of data set: Dose Response confirmation of small molecule APOBEC3A DNA Deaminase Inhibitors via a fluorescence-based single-stranded DNA deaminase assay. [Related pubchem assays (depositor defined):AID493011, AID493024]. It is filed as functional.
The target in data set [3] is DNA dC->dU-editing enzyme APOBEC-3G (Homo sapiens, UniProt Q9HC16). It is filed as functional.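 Also: Dose-response counterscreen measuring inhibition of APOBEC3G DNA deaminase activity, run while confirming APOBEC3A inhibitors.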
The target in data set [4] is Cytochrome P450 3A4 (Homo sapiens, UniProt P08684).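 Also: CYP3A4 tested as one member of a cytochrome P450 panel screen.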
Data set [5] deals with T1, Heat shock factor protein 1 (Mus musculus, UniProt P38532).
T1 sequence (P38532 whole entry): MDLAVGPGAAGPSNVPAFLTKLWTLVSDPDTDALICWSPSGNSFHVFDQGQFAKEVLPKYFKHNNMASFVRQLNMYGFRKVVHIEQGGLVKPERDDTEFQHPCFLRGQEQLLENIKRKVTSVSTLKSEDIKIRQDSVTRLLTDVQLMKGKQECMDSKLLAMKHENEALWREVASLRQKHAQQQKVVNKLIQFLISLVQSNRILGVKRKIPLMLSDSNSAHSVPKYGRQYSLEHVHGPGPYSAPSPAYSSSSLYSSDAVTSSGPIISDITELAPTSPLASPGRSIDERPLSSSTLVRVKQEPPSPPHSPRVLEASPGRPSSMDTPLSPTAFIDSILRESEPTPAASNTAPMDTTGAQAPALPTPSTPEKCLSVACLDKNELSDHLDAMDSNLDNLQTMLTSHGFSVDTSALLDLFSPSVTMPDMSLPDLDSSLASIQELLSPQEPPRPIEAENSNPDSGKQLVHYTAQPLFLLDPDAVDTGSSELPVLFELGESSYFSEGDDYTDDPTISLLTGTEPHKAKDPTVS
Kind of data set: enhancement of HSF1-driven luciferase signal – cell-based, NIH3T3, luminescence, dose retest, confirmation (AID 435004).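 Also: stress induced by proteasome inhibitor MG132 added 30 min after compound; luciferase reporter driven by HSF1 response element in NIH3T3 cells; actives raise luminescence as potentiators of the MG132 stress response.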 In kind it is functional.

For data set [6], the target named is T2, Cytochrome P450 1A2 (Homo sapiens, UniProt P05177).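 Also: PubChem cytochrome P450 panel assay, CYP1A2 panel member.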
T2 sequence (P05177 whole entry): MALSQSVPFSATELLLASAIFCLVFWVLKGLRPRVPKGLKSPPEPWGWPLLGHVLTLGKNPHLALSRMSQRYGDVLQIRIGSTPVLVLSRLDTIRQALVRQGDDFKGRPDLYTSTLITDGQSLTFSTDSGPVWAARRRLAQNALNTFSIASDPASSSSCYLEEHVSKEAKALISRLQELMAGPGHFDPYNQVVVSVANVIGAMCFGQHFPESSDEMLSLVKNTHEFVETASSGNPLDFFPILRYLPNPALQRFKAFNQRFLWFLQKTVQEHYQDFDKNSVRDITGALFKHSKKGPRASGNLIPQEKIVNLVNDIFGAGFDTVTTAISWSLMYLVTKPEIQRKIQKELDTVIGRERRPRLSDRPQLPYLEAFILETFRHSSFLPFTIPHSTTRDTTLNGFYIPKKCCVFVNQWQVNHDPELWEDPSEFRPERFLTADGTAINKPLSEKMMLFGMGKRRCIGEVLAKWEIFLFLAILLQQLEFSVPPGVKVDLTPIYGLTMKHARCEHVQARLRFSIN

The target of data set [7] is Cytochrome P450 2C19 (Homo sapiens, UniProt P33261). In words: Cytochrome panel assay with activity outcomes. Panel member name: p450-cyp2c19 Compounds with AC50 equal or less than 10 uM are considered active. In kind it is functional.
The test system of data set [8] is Vero. Kind of data set: cells. It is filed as functional. To be noted: Chlorocebus sabaeus.
Data set [9] has as its system H9c2. In words: cells. It is filed as functional, cell-based. As to conditions: Rattus norvegicus, H9c2, Myocardium.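 Also: confirmatory concentration-response retest of ultra-high-throughput screening hits for modulation of myocardial damage; cell death induced by hydrogen peroxide oxidative stress; compound pretreatment for 60 min then peroxide exposure for 2 h; potency is for protecting the cells against peroxide damage rather than for killing them.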
Data set [10] in a line: intracellular Trypanosoma cruzi inhibitors in host cells – cell-based, plate reader, cherry-pick samples, set 3, dose response (AID 651818).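 Also: compounds incubated with infected cells for about four days.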 It is filed as functional.

Calls of active or inactive are those of the source.

The AC50 is the midpoint of the concentration-response curve, whichever way the signal moves. For orientation: IC50 means the concentration that inhibits the measured activity by half. As usually defined, the EC50 is the concentration at which the effect is half-maximal. As a reminder, the CC50 is the concentration at which the toxic effect on the cells reaches its halfway point.

Cytochrome P450 2C19, sequence (P33261 whole entry): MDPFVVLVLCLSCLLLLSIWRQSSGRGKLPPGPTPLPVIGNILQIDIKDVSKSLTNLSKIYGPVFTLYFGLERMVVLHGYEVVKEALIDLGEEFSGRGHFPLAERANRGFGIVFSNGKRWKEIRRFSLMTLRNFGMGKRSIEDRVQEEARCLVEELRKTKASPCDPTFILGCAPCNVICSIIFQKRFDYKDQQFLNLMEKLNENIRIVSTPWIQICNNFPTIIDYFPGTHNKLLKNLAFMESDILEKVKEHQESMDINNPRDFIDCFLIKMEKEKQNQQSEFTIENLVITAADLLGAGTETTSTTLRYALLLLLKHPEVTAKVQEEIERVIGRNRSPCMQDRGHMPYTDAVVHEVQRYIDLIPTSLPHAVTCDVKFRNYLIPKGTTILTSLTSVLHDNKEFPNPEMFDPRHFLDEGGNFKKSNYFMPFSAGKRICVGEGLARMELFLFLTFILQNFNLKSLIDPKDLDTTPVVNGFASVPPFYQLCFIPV
DNA dC->dU-editing enzyme APOBEC-3A, sequence (P31941 whole entry): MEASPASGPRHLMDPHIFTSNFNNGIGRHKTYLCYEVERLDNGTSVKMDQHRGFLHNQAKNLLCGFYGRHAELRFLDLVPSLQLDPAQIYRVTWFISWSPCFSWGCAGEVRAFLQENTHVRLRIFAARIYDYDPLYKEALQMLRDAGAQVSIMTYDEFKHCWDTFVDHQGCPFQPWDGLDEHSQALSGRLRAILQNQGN
Cytochrome P450 2C9, sequence (P11712 whole entry): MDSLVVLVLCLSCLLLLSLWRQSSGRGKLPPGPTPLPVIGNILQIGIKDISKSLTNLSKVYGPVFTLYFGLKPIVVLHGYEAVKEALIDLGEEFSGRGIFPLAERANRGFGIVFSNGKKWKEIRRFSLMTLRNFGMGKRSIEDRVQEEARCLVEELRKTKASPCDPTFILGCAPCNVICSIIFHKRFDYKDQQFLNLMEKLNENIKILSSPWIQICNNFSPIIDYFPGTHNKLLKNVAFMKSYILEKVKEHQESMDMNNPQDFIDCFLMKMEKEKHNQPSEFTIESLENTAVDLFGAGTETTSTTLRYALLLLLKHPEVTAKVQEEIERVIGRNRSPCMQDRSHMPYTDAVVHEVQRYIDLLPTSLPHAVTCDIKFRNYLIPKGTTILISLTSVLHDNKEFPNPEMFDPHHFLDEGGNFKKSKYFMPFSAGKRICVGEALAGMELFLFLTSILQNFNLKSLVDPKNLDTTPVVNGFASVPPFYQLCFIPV
DNA dC->dU-editing enzyme APOBEC-3G, sequence (Q9HC16 whole entry): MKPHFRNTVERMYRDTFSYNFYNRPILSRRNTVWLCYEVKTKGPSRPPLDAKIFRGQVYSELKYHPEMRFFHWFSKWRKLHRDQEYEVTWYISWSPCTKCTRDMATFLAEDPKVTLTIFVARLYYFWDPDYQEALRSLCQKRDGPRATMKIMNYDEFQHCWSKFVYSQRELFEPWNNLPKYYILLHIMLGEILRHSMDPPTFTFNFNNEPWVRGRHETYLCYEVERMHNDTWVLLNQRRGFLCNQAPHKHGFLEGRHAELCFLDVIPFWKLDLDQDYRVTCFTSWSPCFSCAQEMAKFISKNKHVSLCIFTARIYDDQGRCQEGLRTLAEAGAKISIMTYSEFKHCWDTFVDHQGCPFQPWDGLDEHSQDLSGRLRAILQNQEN
Cytochrome P450 3A4, sequence (P08684 whole entry): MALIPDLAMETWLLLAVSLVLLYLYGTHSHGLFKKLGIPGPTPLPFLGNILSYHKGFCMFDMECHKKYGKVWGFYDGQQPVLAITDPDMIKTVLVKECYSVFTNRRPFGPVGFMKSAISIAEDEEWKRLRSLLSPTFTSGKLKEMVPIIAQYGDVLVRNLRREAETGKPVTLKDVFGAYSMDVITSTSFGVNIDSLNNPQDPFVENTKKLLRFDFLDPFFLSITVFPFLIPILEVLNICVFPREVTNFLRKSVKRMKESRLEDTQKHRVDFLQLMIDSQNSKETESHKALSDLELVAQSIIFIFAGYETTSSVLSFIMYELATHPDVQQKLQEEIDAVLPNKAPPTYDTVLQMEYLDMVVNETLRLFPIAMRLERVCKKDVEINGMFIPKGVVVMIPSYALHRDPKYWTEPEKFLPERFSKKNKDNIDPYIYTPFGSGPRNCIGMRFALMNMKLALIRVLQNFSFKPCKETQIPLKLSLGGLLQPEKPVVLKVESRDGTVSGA

`O=C(O)CCCC[C@H]1CCSS1`: the AC50 entry in data set [1] is given as “inconclusive”. As for `COc1cc(Nc2cccc[n+]2C)cc(OC)c1OC`, the results for the IC50 in [2] and in data set [3] were 3.48 µM (active) and 2.85 µM (active), respectively. In the case of `CCN(CC)CCN1C(=O)C(O)=C(C(=O)c2ccc(OC)cc2)C1c1cccs1` (stereo not drawn), the AC50 was 17.8 µM (inconclusive) in data set [4] and “inconclusive” in data set [1]. `Cc1cccc(C)c1OCC(=O)NCc1nnc(SCC(=O)NC2CCCCC2C)n1C` (stereo not drawn): the IC50 in data set [2] was 2.78 µM (active); in data set [3], 6.2 µM (active). In addition, the EC50 in data set [5] is > 260 µM (inactive). For `COc1ccc(Br)cc1/C=C/C(=O)Nc1c(C)cccc1C`, the AC50 in data set [6] was 22.4 µM (inconclusive); in [1], “inconclusive”. On to `CNc1ccnc(-c2c(C)noc2C)n1`, for which the AC50 entry in data set [7] is “inconclusive”; in data set [4], 39.8 µM (inconclusive); in data set [1], “inconclusive”. With `COc1cccc(C2=CC(c3cc(OC)ccc3OC)n3nnnc3N2)c1` (stereo not drawn), the CC50 in [8] was 14.4 µM (active). On the same count and under the same terms, the value for `CCOC(=O)c1c(NC(=O)CSc2c[nH]c3ccccc23)sc2c1CCCC2` was > 25 µM (active). For the compound `N#C/C(=C\c1c[nH]nc1-c1ccccc1)C(=O)NC1CCCCCC1`, the AC50 result in data set [1] was “inconclusive”. Regarding `COCCN1Cc2cccc(C(=O)Nc3cccc(-c4nc5ccccc5[nH]4)c3)c2C1=O`, in [9], the IC50 was > 79 µM (inactive). Besides, the CC50 in data set [8] was > 25 µM (active).

On to `CCN1C(NCCCCO)=N[C@@H](c2cccc(C(F)(F)F)c2)C(C(=O)OC)=C1C`, for which the IC50 was 2.59 µM (active) in data set [2] and 2.44 µM (active) in [3].

In the case of `CC[C@]12C=CCN3CCC4(c5cc(Br)c(OC)cc5N(C)C4[C@@](O)(C(=O)OC)[C@@H]1OC(C)=O)C32` (stereo partly drawn), the IC50 in data set [2] was 2.14 µM (active); in [3] it was 1.81 µM (active). In the case of `CCN(CC)S(=O)(=O)c1cc(C(=O)OC)ccc1Cl`, the AC50 result in [1] is “inconclusive”. On to `O=C1OCc2cccc3cccc1c23`, for which the values for the AC50 in data set [7] (read-out: AC50) and in data set [1] were 39.8 µM (inconclusive) and “inconclusive”, respectively. For `C=CCN1C(=O)/C(=C/c2ccc3c(c2)CCCN3CCC)C(=O)NC1=S`, the CC50 in [8] was 18.3 µM (active). With `CC[N+](C)(CC)CC(=O)OCC1C(C)C=C(C)CC1C` (stereo not drawn), the values for the IC50 in [2] and in data set [3] were 1.31 µM (active) and 2.04 µM (active), respectively. Turning to `CC(C)(C)C(=O)NNC(=O)CCCOc1ccc(Cl)cc1Cl`, the results for the AC50 in [6] and in [1] were 25.1 µM (inconclusive) and “inconclusive”, respectively. Regarding `Cc1c(C(=O)Nc2ccc(OCc3ccccc3)cc2)cccc1[N+](=O)[O-]`, the AC50 result in data set [1] is recorded as “inconclusive”. Regarding `O=C(NCCOc1ccccc1)c1nc[nH]n1`, the IC50 in data set [2] was 6.18 µM (active); in data set [3] it was 18.7 µM (active). Turning to `Cc1[nH]c(=O)c(C(=O)/C=C/c2ccccc2F)c2c1CCCC2`, in data set [1], the AC50 entry is “inconclusive”.

For `COC(=O)c1cccc(NC(=O)/C=C/c2cccc([N+](=O)[O-])c2)c1`, the AC50 is 5.01 µM (inconclusive) in [7] (read-out: AC50), 2.24 µM (inconclusive) in [6] and “inconclusive” in data set [1].

On to `CN1CCC(N(C)S(=O)(=O)c2ccc(NC(=O)c3ccc(S(=O)(=O)N(C)C)cc3)cc2)CC1`, for which the IC50 in [2] was 13.9 µM (active); in data set [3], 16 µM (active). Taken in the same sequence, the figures for `CCN(CC)CCNC(=O)c1ccc(NC(=O)C2CC(=O)N(c3ccc4c(c3)OCCO4)C2)cc1` (stereo not drawn) were 7.53 µM (active) and 8.16 µM (active). For the compound `C=CC[C@@H](CC(=O)N(CCO)Cc1ccccc1)C(=O)N[C@@H](COC(=O)[C@@H](CC=C)Cc1ccc(F)cc1)Cc1c[nH]c2ccccc12`, in data set [8], the CC50 was 18 µM (active).

In the case of `C[C@H](CO)N1C[C@H](C)[C@H](CN(C)Cc2ccc(Cl)c(Cl)c2)Oc2c(NS(C)(=O)=O)cccc2C1=O`, the AC50 in data set [10] was 17.3 µM (active). Regarding `C[C@@H]1CN([C@H](C)CO)C(=O)Cc2cc(NC(=O)Nc3ccc(C(F)(F)F)cc3)ccc2O[C@@H]1CN(C)Cc1ccc(Oc2ccccc2)cc1`, the AC50 in data set [10] was 3.3 µM (active). Same read-out and setting: with `C[C@@H]1CN([C@@H](C)CO)C(=O)Cc2cc(NC(=O)Nc3ccc(C(F)(F)F)cc3)ccc2O[C@@H]1CN(C)C(=O)Nc1ccc(C(F)(F)F)cc1` the figure was 3.66 µM (active); with `COc1ccc(S(=O)(=O)Nc2ccc3c(c2)CC(=O)N([C@H](C)CO)C[C@@H](C)[C@@H](CN(C)Cc2ccc(Oc4ccccc4)cc2)O3)cc1`, 2.26 µM (active); with `C[C@@H]1CN([C@H](C)CO)C(=O)Cc2cc(NS(=O)(=O)c3ccc(F)cc3)ccc2O[C@@H]1CN(C)S(=O)(=O)c1ccccc1`, 5.74 µM (active).

As to `C[C@H]1CN([C@@H](C)CO)C(=O)c2cc(NC(=O)Nc3ccc(F)cc3)ccc2O[C@H]1CN(C)Cc1ccc(-c2ccccc2)cc1`, the AC50 in data set [10] is 3.74 µM (active). On the same count and under the same terms, with `C[C@@H]1CN([C@H](C)CO)C(=O)c2cc(NS(=O)(=O)c3ccc(F)cc3)ccc2O[C@H]1CN(C)Cc1ccc(-c2ccccc2)cc1` the figure was 5.77 µM (active); with `C[C@@H]1CN([C@@H](C)CO)C(=O)c2cc(NS(=O)(=O)c3ccc(F)cc3)ccc2O[C@H]1CN(C)Cc1ccc(C(=O)Nc2ccccc2N)cc1`, 3.6 µM (active); with `C[C@H](CO)N1C[C@H](C)[C@H](CN(C)Cc2ccc(C(F)(F)F)cc2)Oc2ccc(NC(=O)Cc3cn(C)c4ccccc34)cc2C1=O`, 4.35 µM (active). The same measure, in the same setting: the value for `C[C@H]1CN([C@@H](C)CO)C(=O)c2cc(NC(=O)Cc3cn(C)c4ccccc34)ccc2O[C@H]1CN(C)Cc1ccc(Oc2ccccc2)cc1` was 6.34 µM (active); that for `C[C@H]1CN([C@@H](C)CO)C(=O)c2cc(NC(=O)Nc3ccc(C(F)(F)F)cc3)ccc2O[C@@H]1CN(C)Cc1ccc2c(c1)OCO2` was 4.02 µM (active). Regarding `C[C@@H]1CN([C@H](C)CO)C(=O)Cc2cc(NC(=O)Nc3ccc4c(c3)OCO4)ccc2O[C@H]1CN(C)Cc1ccc(Oc2ccccc2)cc1`, the AC50 in data set [10] was 3.08 µM (active). On to `C[C@H]1CN([C@@H](C)CO)C(=O)c2cccc(N(C)C)c2O[C@H]1CN(C)Cc1ccc(C(=O)Nc2ccccc2N)cc1`, for which, in data set [10], the AC50 is 4.84 µM (active). Still for that read-out and setting: the value for `C[C@H](CO)N1C[C@H](C)[C@H](CN(C)S(=O)(=O)c2ccc(Cl)cc2)Oc2c(NC(=O)Nc3ccc(C(F)(F)F)cc3)cccc2C1=O` was 4.44 µM (active). Turning to `CC(C)C(NC(=O)c1ccc2c(c1)OCO2)C(=O)N/N=C\c1ccco1` (stereo not drawn), the results for the IC50 in data set [2] and in data set [3] were > 100 µM (inactive) and 15.9 µM (active), respectively.
